Data reported in ChEMBL document CHEMBL1201861, “Genomics of Drug Sensitity in Cancer screening data, Wellcome Trust Sanger Institute”.

How the values were obtained:
Test in all cases: cells
[1] = test system: EKVX; format: functional, cell-based, Homo sapiens; conditions: Homo sapiens, EKVX;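 note: growth inhibition of human EKVX cells, read out with a cell viability assay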
Description: SANGER: Inhibition of human EKVX cell growth in a cell viability assay.

[2] = test system: LB1047-RCC; format: functional, cell-based, Homo sapiens; conditions: Homo sapiens, LB1047-RCC;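 note: inhibition of cell growth, determined with a cell viability assay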
Description: SANGER: Inhibition of human LB1047-RCC cell growth in a cell viability assay.

[3] = test system: KP-N-YS; format: functional, cell-based; conditions: Homo sapiens;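 note: cell viability assay measuring inhibition of cell line growth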
Description: SANGER: Inhibition of human KP-N-YS cell growth in a cell viability assay.

[4] = test system: LB831-BLC; format: functional, cell-based, Homo sapiens; conditions: Homo sapiens, LB831-BLC;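 note: growth inhibition of LB831-BLC cells, read out with a cell viability assay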
Description: SANGER: Inhibition of human LB831-BLC cell growth in a cell viability assay.

[5] = test system: COLO-680N; format: functional, cell-based, Homo sapiens; conditions: Homo sapiens, COLO-680N;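 note: cell viability assay used to measure inhibition of COLO-680N cell growth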
Description: SANGER: Inhibition of human COLO-680N cell growth in a cell viability assay.

[6] = test system: EW-3; format: functional, cell-based; conditions: Homo sapiens;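 note: cell viability assay read-out, IC50 reflects inhibition of growth of the EW-3 cells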
Description: SANGER: Inhibition of human EW-3 cell growth in a cell viability assay.

[7] = test system: NY; format: functional, cell-based, Homo sapiens; conditions: Homo sapiens, NY
Description: SANGER: Inhibition of human NY cell growth in a cell viability assay.

[8] = test system: A4-Fuk; format: functional, cell-based; conditions: Homo sapiens;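 note: growth inhibition of A4-Fuk cells, read out by a cell viability assay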
Description: SANGER: Inhibition of human A4-Fuk cell growth in a cell viability assay.

[9] = test system: SW948; format: functional, cell-based, Homo sapiens; conditions: Homo sapiens, SW948;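 note: growth inhibition of SW948 cells, read out with a cell viability assay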
Description: SANGER: Inhibition of human SW948 cell growth in a cell viability assay.

[10] = test system: ATN-1; format: functional, cell-based; conditions: Homo sapiens;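 note: growth inhibition of human ATN-1 cells, read out with a cell viability assay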
Description: SANGER: Inhibition of human ATN-1 cell growth in a cell viability assay.

[11] = test system: NCI-H28; format: functional, cell-based, Homo sapiens; conditions: Homo sapiens, NCI-H28;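 note: growth inhibition of human NCI-H28 cells, read out as cell viability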
Description: SANGER: Inhibition of human NCI-H28 cell growth in a cell viability assay.

[12] = test system: OAW-42; format: functional, cell-based, Homo sapiens; conditions: Homo sapiens, OAW-42;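 note: growth inhibition of OAW-42 cells, read out with a cell viability assay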
Description: SANGER: Inhibition of human OAW-42 cell growth in a cell viability assay.

[13] = test system: DU-145; format: functional, cell-based, Homo sapiens; conditions: Homo sapiens, DU-145
Description: SANGER: Inhibition of human DU-145 cell growth in a cell viability assay.

[14] = test system: SK-MEL-30; format: functional, cell-based; conditions: Homo sapiens;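 note: growth inhibition of SK-MEL-30 cells, determined with a cell viability assay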
Description: SANGER: Inhibition of human SK-MEL-30 cell growth in a cell viability assay.

[15] = test system: HDLM-2; format: functional, cell-based; conditions: Homo sapiens;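 note: cell viability assay measuring suppression of HDLM-2 proliferation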
Description: SANGER: Inhibition of human HDLM-2 cell growth in a cell viability assay.

[16] = test system: CAS-1; format: functional, cell-based, Homo sapiens; conditions: Homo sapiens, CAS-1;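 note: growth inhibition of CAS-1 cells, measured with a cell viability assay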
Description: SANGER: Inhibition of human CAS-1 cell growth in a cell viability assay.

[17] = test system: SK-MEL-28; format: functional, cell-based; conditions: Homo sapiens;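 note: growth inhibition of human SK-MEL-28 cells, read out with a cell viability assay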
Description: SANGER: Inhibition of human SK-MEL-28 cell growth in a cell viability assay.

[18] = test system: KNS-81-FD; format: functional, cell-based, Homo sapiens; conditions: Homo sapiens, KNS-81-FD;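 note: growth inhibition of KNS-81-FD cells, read out with a cell viability assay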
Description: SANGER: Inhibition of human KNS-81-FD cell growth in a cell viability assay.

[19] = test system: BFTC-909; format: functional, cell-based, Homo sapiens; conditions: Homo sapiens, BFTC-909
Description: SANGER: Inhibition of human BFTC-909 cell growth in a cell viability assay.

[20] = test system: NCI-H2030; format: functional, cell-based, Homo sapiens; conditions: Homo sapiens, NCI-H2030;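 note: growth inhibition of human NCI-H2030 cells, read out by a cell viability assay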
Description: SANGER: Inhibition of human NCI-H2030 cell growth in a cell viability assay.

[21] = test system: KALS-1; format: functional, cell-based, Homo sapiens; conditions: Homo sapiens, KALS-1;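 note: growth inhibition of KALS-1 cells, determined with a cell viability assay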
Description: SANGER: Inhibition of human KALS-1 cell growth in a cell viability assay.

[22] = test system: NB10; format: functional, cell-based, Homo sapiens; conditions: Homo sapiens, NB10;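 note: growth inhibition of NB10 cells, read out by a cell viability assay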
Description: SANGER: Inhibition of human NB10 cell growth in a cell viability assay.

[23] = test system: DOHH-2; format: functional, cell-based; conditions: Homo sapiens;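 note: growth inhibition of human DOHH-2 cells, read out with a cell viability assay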
Description: SANGER: Inhibition of human DOHH-2 cell growth in a cell viability assay.

[24] = test system: RKO; format: functional, cell-based, Homo sapiens; conditions: Homo sapiens, RKO;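 note: growth inhibition of human RKO cells, read out with a cell viability assay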
Description: SANGER: Inhibition of human RKO cell growth in a cell viability assay.

[25] = test system: 647-V; format: functional, cell-based, Homo sapiens; conditions: Homo sapiens, 647-V;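 note: growth inhibition of 647-V cells, read out with a cell viability assay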
Description: SANGER: Inhibition of human 647-V cell growth in a cell viability assay.

[26] = test system: NH-12; format: functional, cell-based, Homo sapiens; conditions: Homo sapiens, NH-12;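 note: growth inhibition of NH-12 cells, read out with a cell viability assay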
Description: SANGER: Inhibition of human NH-12 cell growth in a cell viability assay.

[27] = test system: UMC-11; format: functional, cell-based, Homo sapiens; conditions: Homo sapiens, UMC-11;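 note: growth inhibition of UMC-11 cells, read out with a cell viability assay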
Description: SANGER: Inhibition of human UMC-11 cell growth in a cell viability assay.

[28] = test system: HT-29; format: functional, cell-based, Homo sapiens; conditions: Homo sapiens, HT-29;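 note: growth inhibition of human HT-29 cells, read out by a cell viability assay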
Description: SANGER: Inhibition of human HT-29 cell growth in a cell viability assay.

[29] = test system: NOS-1; format: functional, cell-based, Homo sapiens; conditions: Homo sapiens, NOS-1;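 note: growth inhibition of the human NOS-1 cell line, read out with a cell viability assay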
Description: SANGER: Inhibition of human NOS-1 cell growth in a cell viability assay.

[30] = test system: IGROV-1; format: functional, cell-based, Homo sapiens; conditions: Homo sapiens, IGROV-1;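 note: reduction of IGROV-1 cell growth, read out with a viability assay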
Description: SANGER: Inhibition of human IGROV-1 cell growth in a cell viability assay.

[31] = test system: NCI-H1299; format: functional, cell-based, Homo sapiens; conditions: Homo sapiens, NCI-H1299;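 note: growth inhibition of human NCI-H1299 cells, read out by a cell viability assay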
Description: SANGER: Inhibition of human NCI-H1299 cell growth in a cell viability assay.

[32] = test system: HCC 2998; format: functional, cell-based, Homo sapiens; conditions: Homo sapiens, HCC 2998;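 note: growth inhibition of human HCC2998 cells, measured with a cell viability read-out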
Description: SANGER: Inhibition of human HCC2998 cell growth in a cell viability assay.

[33] = test system: A3-KAW; format: functional, cell-based; conditions: Homo sapiens;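 note: growth inhibition of human A3-KAW cells, read out with a cell viability assay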
Description: SANGER: Inhibition of human A3-KAW cell growth in a cell viability assay.

[34] = test system: HCC38; format: functional, cell-based, Homo sapiens; conditions: Homo sapiens, HCC38;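 note: cell viability assay on the human HCC38 cell line, with IC50 marking the concentration that inhibits cell growth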
Description: SANGER: Inhibition of human HCC38 cell growth in a cell viability assay.

[35] = test system: AGS; format: functional, cell-based, Homo sapiens; conditions: Homo sapiens, AGS;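 note: growth inhibition of AGS cells, determined with a cell viability assay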
Description: SANGER: Inhibition of human AGS cell growth in a cell viability assay.

[36] = test system: CaR-1; format: functional, cell-based, Homo sapiens; conditions: Homo sapiens, CaR-1;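 note: growth inhibition of human CaR-1 cancer cells, read out with a cell viability assay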
Description: SANGER: Inhibition of human CaR-1 cell growth in a cell viability assay.

[37] = test system: no-10; format: functional, cell-based, Homo sapiens; conditions: Homo sapiens;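 note: growth inhibition of no-10 cells, read out with a cell viability assay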
Description: SANGER: Inhibition of human no-10 cell growth in a cell viability assay.

[38] = test system: RPMI-8226; format: functional, cell-based; conditions: Homo sapiens
Description: SANGER: Inhibition of human RPMI-8226 cell growth in a cell viability assay.

[39] = test system: A101D; format: functional, cell-based, Homo sapiens; conditions: Homo sapiens, A101D;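 note: growth inhibition of the cell line, measured with a viability assay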
Description: SANGER: Inhibition of human A101D cell growth in a cell viability assay.

[40] = test system: LCLC-103H cell line; format: functional, cell-based, Homo sapiens; conditions: Homo sapiens, LCLC-103H
Description: SANGER: Inhibition of human LCLC-103H cell growth in a cell viability assay.

[41] = test system: SK-N-AS; format: functional, cell-based, Homo sapiens; conditions: Homo sapiens, SK-N-AS;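 note: growth inhibition of human SK-N-AS cells, measured with a cell viability assay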
Description: SANGER: Inhibition of human SK-N-AS cell growth in a cell viability assay.

[42] = test system: SK-LMS-1; format: functional, cell-based, Homo sapiens; conditions: Homo sapiens, SK-LMS-1;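 note: growth inhibition of human SK-LMS-1 cells, read out with a cell viability assay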
Description: SANGER: Inhibition of human SK-LMS-1 cell growth in a cell viability assay.

[43] = test system: C8166; format: functional, cell-based; conditions: Homo sapiens;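 note: growth inhibition of human C8166 cells measured by a cell viability assay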
Description: SANGER: Inhibition of human C8166 cell growth in a cell viability assay.

[44] = test system: SW1417; format: functional, cell-based, Homo sapiens; conditions: Homo sapiens, SW1417;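 note: growth inhibition of human SW1417 cells, read out with a cell viability assay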
Description: SANGER: Inhibition of human SW1417 cell growth in a cell viability assay.

[45] = test system: HN; format: functional, cell-based, Homo sapiens; conditions: Homo sapiens, HN
Description: SANGER: Inhibition of human HN cell growth in a cell viability assay.

[46] = test system: ChaGo-K-1; format: functional, cell-based; conditions: Homo sapiens;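 note: growth inhibition of ChaGo-K-1 cells, read out with a cell viability assay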
Description: SANGER: Inhibition of human ChaGo-K-1 cell growth in a cell viability assay.

[47] = test system: HTC-C3; format: functional, cell-based, Homo sapiens; conditions: Homo sapiens, HTC-C3;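 note: inhibition of cell growth, read out with a cell viability assay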
Description: SANGER: Inhibition of human HTC-C3 cell growth in a cell viability assay.

[48] = test system: BHY; format: functional, cell-based, Homo sapiens; conditions: Homo sapiens, BHY;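 note: cell growth inhibition read out by a viability assay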
Description: SANGER: Inhibition of human BHY cell growth in a cell viability assay.

[49] = test system: DMS-273; format: functional, cell-based, Homo sapiens; conditions: Homo sapiens, DMS-273
Description: SANGER: Inhibition of human DMS-273 cell growth in a cell viability assay.

[50] = test system: KYSE-510; format: functional, cell-based, Homo sapiens; conditions: Homo sapiens, KYSE-510;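 note: cell viability readout used to measure how strongly growth of the cell line is suppressed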
Description: SANGER: Inhibition of human KYSE-510 cell growth in a cell viability assay.

[51] = test system: SW 954; format: functional, cell-based, Homo sapiens; conditions: Homo sapiens, SW 954;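 note: growth inhibition of SW954 human cancer cells, read out as cell viability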
Description: SANGER: Inhibition of human SW954 cell growth in a cell viability assay.

[52] = test system: NCI-H69; format: functional, cell-based; conditions: Homo sapiens;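 note: growth inhibition of the cell line, read out with a cell viability assay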
Description: SANGER: Inhibition of human NCI-H69 cell growth in a cell viability assay.

Q: For CCC1=C[C@@H]2CN(C1)Cc1c([nH]c3ccccc13)[C@@](C(=O)OC)(c1cc3c(cc1OC)N(C)[C@H]1[C@@](O)(C(=O)OC)[C@H](OC(C)=O)[C@]4(CC)C=CCN5CC[C@]31[C@@H]54)C2 [VINORELBINE], which IC50 [1] is on record?
A: > 64 nM

Q: And the IC50 [2]?
A: > 64 nM

Q: What about the IC50 [3] of the same compound?
A: 21.8 nM

Q: What about the IC50 [4] of the same compound?
A: 29.2 nM

Q: What about the IC50 [5] of the same compound?
A: 53.3 nM

Q: What about the IC50 [6] of the same compound?
A: > 64 nM

Q: And the IC50 [7]?
A: 8.12 nM

Q: And the IC50 [8]?
A: 4.04 nM

Q: What about the IC50 [9] of the same compound?
A: 19.8 nM

Q: And the IC50 [10]?
A: 1.94 nM

Q: And the IC50 [11]?
A: > 64 nM

Q: And the IC50 [12]?
A: 42.5 nM

Q: And the IC50 [13]?
A: 4.81 nM

Q: What about the IC50 [14] of the same compound?
A: 12.4 nM

Q: And the IC50 [15]?
A: 15.9 nM

Q: What about the IC50 [16] of the same compound?
A: 40.1 nM

Q: What about the IC50 [17] of the same compound?
A: > 64 nM

Q: And the IC50 [18]?
A: > 64 nM

Q: What about the IC50 [19] of the same compound?
A: 10.8 nM

Q: And the IC50 [20]?
A: 3.62 nM

Q: And the IC50 [21]?
A: 3.9 nM

Q: What about the IC50 [22] of the same compound?
A: > 64 nM

Q: And the IC50 [23]?
A: 5.04 nM

Q: What about the IC50 [24] of the same compound?
A: 1.52 nM

Q: And the IC50 [25]?
A: 20.9 nM

Q: And the IC50 [26]?
A: 27 nM

Q: What about the IC50 [27] of the same compound?
A: > 64 nM

Q: And the IC50 [28]?
A: 3.24 nM

Q: And the IC50 [29]?
A: 41.3 nM

Q: What about the IC50 [30] of the same compound?
A: 2.2 nM

Q: And the IC50 [31]?
A: 13.6 nM

Q: What about the IC50 [32] of the same compound?
A: 5.05 nM

Q: And the IC50 [33]?
A: 21.6 nM

Q: And the IC50 [34]?
A: 4.87 nM

Q: And the IC50 [35]?
A: 6.46 nM

Q: And the IC50 [36]?
A: 59.1 nM

Q: And the IC50 [37]?
A: 45.6 nM

Q: And the IC50 [38]?
A: 17 nM

Q: What about the IC50 [39] of the same compound?
A: 8.67 nM

Q: And the IC50 [40]?
A: 1.43 nM

Q: What about the IC50 [41] of the same compound?
A: > 64 nM

Q: What about the IC50 [42] of the same compound?
A: 1.46 nM

Q: What about the IC50 [43] of the same compound?
A: 17.6 nM

Q: And the IC50 [44]?
A: > 64 nM

Q: What about the IC50 [45] of the same compound?
A: > 64 nM

Q: What about the IC50 [46] of the same compound?
A: 6.69 nM

Q: And the IC50 [47]?
A: 26.5 nM

Q: And the IC50 [48]?
A: 9.95 nM

Q: And the IC50 [49]?
A: 2.71 nM

Q: What about the IC50 [50] of the same compound?
A: 4.19 nM

Q: What about the IC50 [51] of the same compound?
A: 5.98 nM

Q: And the IC50 [52]?
A: 6.34 nM
